Holding throughout (experiment): Growth inhibition test (MTT) for cytotoxic properties on tumour cell lines
Holding throughout (type): cell-based

Data set [1] concerns HT29 human large intestine cell line. The following applies: HT29 cells, growth checked after day 6, read-out: IC50 of the cytotoxic action on tumour cell lines, HT29. The protocol: (§1) A: Growth Inhibition Test for the Determination of the Cytotoxic Properties on Various Tumour Cell Lines
(§2) The human large intestine cell lines SW 480 and HT29 (ATCC No. CCL 228 and HTB38 and the mouse melanoma cell line B16F10 (CRL 6475) were grown to confluence in Roux dishes in RPMI 1640 medium with addition of 10% FCS. They were then trypsinized and taken up in RPMI plus 10% FCS to a cell count of 50,000 cells or, for B16F10, 20,000 cells per ml. 100 μl of cell suspension/well were added to a 96 microwell plate and incubated at 37° C. for 1 day in a CO2 incubator. A further 100 μl of RPMI medium and 1 μl of DMSO were then added with the test substances. The growth was checked after day 6. For this, 25 μl of MTT solution (3-(4,5-dimethylthiazol-2-yl)-2,5-diphenyltetrazolium bromide) was added to each well at a starting concentration of 5 mg/ml of H2O. The plate was incubated at 37° C. for 5 hours in a CO2 incubator. The medium was then aspirated and 100 μl of 1-propanol/well were added. After shaking with 100 μl of H2O for 30 min, the extinction was measured at 595 nm using a Multiplate Reader (BIO-RAD 3550-UV).
(§3) The cytostatic action is indicated in Table 1 as an IC50 value, in each case for the individual cell lines.

The subject of data set [2] is B16F10 mouse melanoma cell line. The following applies: B16F10 cells, growth checked after day 6, read-out: IC50 of the cytotoxic action on tumour cell lines, B16F10. How it is done: as §1, §2, §3
Data set [3] deals with SW 480 human large intestine cell line. The following applies: SW480 cells, growth checked after day 6, read-out: IC50 of the cytotoxic action on tumour cell lines, SW480. How it is done:
as §1, §2, §3

Where a SMILES comes first, the peptide text is derived from it. [ ]: non-standard residue; d: D form. The star is where a group is joined. ξ: configuration not given here. Camptothecin(20R,20-O) = CC[C@]1(O*)C(=O)OCc2c1cc1n(c2=O)Cc2cc3ccccc3nc2-1; X5 = C[C@H]1O[C@@H](Oc2ccc(NC(=S)*)cc2)[C@@H](O)[C@@H](OCC(N)=O)[C@H]1O; X9 = C[C@H]1O[C@@H](Oc2ccc(NC(=S)*)cc2)[C@@H](O)[C@@H](OCCO)[C@H]1O; X8 = C[C@H]1OC(Oc2ccc(NC(=S)*)cc2)[C@@H](O)[C@@H](OCC(=O)O)[C@H]1O; X4 = CO[C@H]1[C@H](O)[C@@H](Oc2ccc(NC(=S)*)cc2)O[C@@H](C)[C@H]1O; X6 = CO[C@@H]1[C@H](O)[C@H](Oc2ccc(NC(=S)*)cc2)O[C@H](C)[C@@H]1O; X1 = CO[C@H]1[C@@H](O)[C@@H](C)OC(Oc2ccc(NC(=S)*)cc2)[C@H]1O; X7 = OC[C@H]1OC(Oc2ccc(NC(=S)*)cc2)[C@@H](O)[C@@H](O)[C@H]1O; X2 = CC[C@@]1(O*)C(=O)OCc2c1cc1n(c2=O)Cc2cc3ccccc3nc2-1; ξV = CC(C)C(N)C(=O)O; ξP = O=C(O)C1CCCN1

On to `CC[C@@]1(OC(=O)[C@@H](NC(=O)[C@@H]2CCCN2C(=O)[C@H](CC(C)C)NC(=O)CNC(=O)[C@H](CC(C)C)NC(=O)[C@@H]2CCCN2C(=S)Nc2ccc(O[C@H]3O[C@@H](C)[C@@H](O)[C@@H](OC)[C@@H]3O)cc2)C(C)C)C(=O)OCc2c1cc1n(c2=O)Cc2cc3ccccc3nc2-1` [Example 21] (X4-PLGLPV-X2), for which the concentration for half-maximal inhibition (IC50) in data set [1] was 250 nM; in data set [2] it was 800 nM; in data set [3], 100 nM.
In the same order, the values of `CC[C@]1(OC(=O)C(NC(=O)[C@@H](CC(N)=O)NC(=O)[C@@H](CC(C)C)NC(=O)CNC(=O)[C@H](CC(C)C)NC(=O)C2CCCN2C(=S)Nc2ccc(O[C@@H]3O[C@H](C)[C@H](O)[C@H](OCC(N)=O)[C@@H]3O)cc2)C(C)C)C(=O)OCc2c1cc1n(c2=O)Cc2cc3ccccc3nc2-1` (stereo partly drawn) [Example 26] (X5-[ξP]LG[dL][dN][ξV]-{Camptothecin(20R,20-O)}) are 90 nM, 450 nM and 150 nM.
Consider `CC[C@@]1(OC(=O)[C@H](NC(=O)[C@@H](Cc2c[nH]cn2)NC(=O)[C@@H](CC(C)C)NC(=O)CNC(=O)[C@H](CC(C)C)NC(=O)[C@H]2CCCN2C(=S)Nc2ccc(OC3O[C@H](C)[C@H](O)[C@H](OC)[C@@H]3O)cc2)C(C)C)C(=O)OCc2c1cc1n(c2=O)Cc2cc3ccccc3nc2-1` (stereo partly drawn) [Example 13] (X1-[dP]LG[dL][dH][dV]-X2), for which the half-maximal inhibitory concentration (IC50) in data set [1] was 70 nM; in data set [2], 200 nM; in data set [3], 100 nM.
In the same order, the values of `CC[C@@]1(OC(=O)[C@H](NC(=O)[C@@H](CSC)NC(=O)[C@@H](CC(C)C)NC(=O)CNC(=O)[C@H](CC(C)C)NC(=O)[C@H]2CCCN2C(=S)Nc2ccc(OC3O[C@H](C)[C@H](O)[C@H](OC)[C@@H]3O)cc2)C(C)C)C(=O)OCc2c1cc1n(c2=O)Cc2cc3ccccc3nc2-1` (stereo partly drawn) [Example 8] (X1-[dP]LG[dL][dC](Me)[dV]-X2) are 40 nM, 150 nM and 50 nM.
In the same order, the values of `CC[C@@]1(OC(=O)[C@H](NC(=O)[C@@H](CC(N)=O)NC(=O)[C@@H](CC(C)C)NC(=O)CNC(=O)[C@H](CC(C)C)NC(=O)[C@H]2CCCN2C(=S)Nc2ccc(OC3O[C@H](CO)[C@H](O)[C@H](O)[C@@H]3O)cc2)C(C)C)C(=O)OCc2c1cc1n(c2=O)Cc2cc3ccccc3nc2-1` (stereo partly drawn) [Example 24] (X7-[dP]LG[dL][dN][dV]-X2) are 100 nM, 500 nM and 200 nM.
For `CC[C@]1(OC(=O)[C@H](NC(=O)[C@@H](CC(N)=O)NC(=O)[C@@H](CC(C)C)NC(=O)CNC(=O)[C@H](CC(C)C)NC(=O)C2CCCN2C(=O)CNC(=S)Nc2ccc(O[C@@H]3O[C@H](C)[C@H](O)[C@H](OC)[C@@H]3O)cc2)C(C)C)C(=O)OCc2c1cc1n(c2=O)Cc2cc3ccccc3nc2-1` (stereo partly drawn) [Example 27] (X6-G[ξP]LG[dL][dN][dV]-{Camptothecin(20R,20-O)}) the same measures were 15 nM, 50 nM and 25 nM.
In the case of `CC[C@@]1(OC(=O)[C@H](NC(=O)[C@@H](CC(N)=O)NC(=O)[C@@H](CC(C)C)NC(=O)CNC(=O)[C@H](CC(C)C)NC(=O)[C@H]2CCCN2C(=S)Nc2ccc(OC3O[C@H](C)[C@H](O)[C@H](OCC(=O)O)[C@@H]3O)cc2)C(C)C)C(=O)OCc2c1cc1n(c2=O)Cc2cc3ccccc3nc2-1` (stereo partly drawn) [Example 23] (X8-[dP]LG[dL][dN][dV]-X2), the IC50 in data set [1] stood at 120 nM; in data set [2], 800 nM; in data set [3], 200 nM.
For `CC[C@@]1(OC(=O)[C@H](NC(=O)[C@@H](Cc2c[nH]cn2)NC(=O)[C@@H](CC(C)C)NC(=O)CNC(=O)[C@H](CC(C)C)NC(=O)[C@H]2CCCN2C(=S)Nc2ccc(OC3O[C@H](C)[C@H](O)[C@H](OC)[C@@H]3O)cc2)C(C)C)C(=O)OCc2c1cc1n(c2=O)Cc2cc3ccccc3nc2-1` (stereo partly drawn) [Example 11] (X1-[dP]LG[dL][dH][dV]-X2) the same measures were 80 nM, 300 nM and 200 nM.
For `CC[C@@]1(OC(=O)[C@H](NC(=O)[C@@H](Cc2c[nH]cn2)NC(=O)CNC(=O)[C@H](CC(C)C)NC(=O)[C@H]2CCCN2C(=S)Nc2ccc(OC3O[C@H](C)[C@H](O)[C@H](OC)[C@@H]3O)cc2)C(C)C)C(=O)OCc2c1cc1n(c2=O)Cc2cc3ccccc3nc2-1` (stereo partly drawn) [Example 1] the same measures were 70 nM, 150 nM and 150 nM.
In the same order, the values of `CC[C@]1(OC(=O)[C@H](NC(=O)[C@@H](CC(N)=O)NC(=O)[C@@H](CC(C)C)NC(=O)CNC(=O)[C@H](CC(C)C)NC(=O)[C@H]2CCCN2C(=S)Nc2ccc(O[C@@H]3O[C@H](C)[C@H](O)[C@H](OCCO)[C@@H]3O)cc2)C(C)C)C(=O)OCc2c1cc1n(c2=O)Cc2cc3ccccc3nc2-1` [Example 25] (X9-[dP]LG[dL][dN][dV]-{Camptothecin(20R,20-O)}) are 150 nM, 800 nM and 180 nM.
Turning to `CC[C@@]1(OC(=O)[C@@H](NC(=O)[C@H](CCC(=O)O)NC(=O)[C@H](CC(C)C)NC(=O)CNC(=O)[C@H](CC(C)C)NC(=O)[C@@H]2CCCN2C(=S)Nc2ccc(O[C@H]3O[C@@H](C)[C@@H](O)[C@@H](OC)[C@@H]3O)cc2)C(C)C)C(=O)OCc2c1cc1n(c2=O)Cc2cc3ccccc3nc2-1` [Example 19] (X4-PLGLEV-X2), the IC50 in data set [1] is 400 nM; in data set [2] it was 1500 nM; in data set [3], 200 nM.
In the same order, the values of `CC[C@@]1(OC(=O)[C@@H](NC(=O)[C@@H](NC(=O)[C@H](CC(C)C)NC(=O)CNC(=O)[C@H](CC(C)C)NC(=O)[C@@H]2CCCN2C(=S)Nc2ccc(O[C@H]3O[C@@H](C)[C@@H](O)[C@@H](OC)[C@@H]3O)cc2)C(C)C)C(C)C)C(=O)OCc2c1cc1n(c2=O)Cc2cc3ccccc3nc2-1` [Example 15] (X4-PLGLVV-X2) are 100 nM, 400 nM and 80 nM.
For `CC[C@@]1(OC(=O)[C@@H](NC(=O)[C@H](Cc2ccccc2)NC(=O)[C@H](CC(C)C)NC(=O)CNC(=O)[C@H](CC(C)C)NC(=O)[C@@H]2CCCN2C(=S)Nc2ccc(O[C@H]3O[C@@H](C)[C@@H](O)[C@@H](OC)[C@@H]3O)cc2)C(C)C)C(=O)OCc2c1cc1n(c2=O)Cc2cc3ccccc3nc2-1` [Example 16] (X4-PLGLFV-X2), the half-maximal inhibitory concentration (IC50) was 80 nM in data set [1], 250 nM in data set [2] and 60 nM in data set [3].
In the same order, the values of `CC[C@@]1(OC(=O)[C@@H](NC(=O)[C@H](CO)NC(=O)[C@H](CC(C)C)NC(=O)CNC(=O)[C@H](CC(C)C)NC(=O)[C@@H]2CCCN2C(=S)Nc2ccc(O[C@H]3O[C@@H](C)[C@@H](O)[C@@H](OC)[C@@H]3O)cc2)C(C)C)C(=O)OCc2c1cc1n(c2=O)Cc2cc3ccccc3nc2-1` [Example 17] (X4-PLGLSV-X2) are 70 nM, 200 nM and 40 nM.
With `CC[C@@]1(OC(=O)[C@@H](NC(=O)[C@@H](C)NC(=O)[C@H](CC(C)C)NC(=O)CNC(=O)[C@H](CC(C)C)NC(=O)[C@@H]2CCCN2C(=S)Nc2ccc(O[C@H]3O[C@@H](C)[C@@H](O)[C@@H](OC)[C@@H]3O)cc2)C(C)C)C(=O)OCc2c1cc1n(c2=O)Cc2cc3ccccc3nc2-1` [Example 14] (X4-PLGL[dA]V-X2), the figures for the IC50 in data set [1], in data set [2] and in data set [3] were 900 nM, 2000 nM and 700 nM, respectively.
For the compound `CC[C@@]1(OC(=O)[C@@H](NC(=O)[C@H](C)NC(=O)[C@H](CC(C)C)NC(=O)CNC(=O)[C@H](CC(C)C)NC(=O)[C@@H]2CCCN2C(=S)Nc2ccc(O[C@H]3O[C@@H](C)[C@@H](O)[C@@H](OC)[C@@H]3O)cc2)C(C)C)C(=O)OCc2c1cc1n(c2=O)Cc2cc3ccccc3nc2-1` [Example 22] (X4-PLGLAV-X2), the half-inhibitory concentration (IC50) was 70 nM in data set [1], 250 nM in data set [2] and 40 nM in data set [3].
For `CC[C@@]1(OC(=O)[C@@H](NC(=O)CNC(=O)[C@H](CC(C)C)NC(=O)CNC(=O)[C@H](CC(C)C)NC(=O)[C@@H]2CCCN2C(=S)Nc2ccc(O[C@H]3O[C@@H](C)[C@@H](O)[C@@H](OC)[C@@H]3O)cc2)C(C)C)C(=O)OCc2c1cc1n(c2=O)Cc2cc3ccccc3nc2-1` [Example 20] (X4-PLGLGV-X2) the same measures were 250 nM, 800 nM and 120 nM.
In the same order, the values of `CC[C@]1(OC(=O)[C@H](NC(=O)[C@@H](CCCCN)NC(=O)[C@@H](CC(C)C)NC(=O)CNC(=O)[C@H](CC(C)C)NC(=O)[C@H]2CCCN2C(=S)Nc2ccc(O[C@@H]3O[C@H](C)[C@H](O)[C@H](OC)[C@@H]3O)cc2)C(C)C)C(=O)OCc2c1cc1n(c2=O)Cc2cc3ccccc3nc2-1` [Example 10] (X6-[dP]LG[dL][dK][dV]-{Camptothecin(20R,20-O)}) are 70 nM, 150 nM and 80 nM.

The IC50 is the concentration that gives 50% inhibition.

The values above are taken from patent US20020173452A1, “Cytostatic-glycoconjugates having specifically cleavable linking units” (priority 2000, published 2002).
